US20060147348A1, “Sampling device and methods” (priority 2004, published 2006)
Like-named read-outs stand apart in the source and are kept apart here.

Test: Retention of THC in the mouth after smoking marijuana: THC in saliva and tongue mucus by quantitative GC/MS
Assay type: in vivo, human
Settings: for concentration at 5 min / concentration at 2 h / concentration at 6 h / concentration at 24 h: human, inhaled; for concentration at 5 min: 5 minutes post smoking 0.2 g of marijuana; for concentration at 2 h: 2 hours post smoking 0.2 g of marijuana; for concentration at 6 h: 6 hours post smoking 0.2 g of marijuana; for concentration at 24 h: 24 hours post smoking 0.2 g of marijuana
Source text: 0.2 grams (g) of marijuana was smoked by a test subject. Mucosal surface samples and saliva were collected at different time intervals by scraping the top side of the tongue a polypropylene card having a width×length×thickness of about 2 inches×about 3 inches×about 0.04 inches, using the about 2 inch edge of the card as an abrasive. The mucus specimens were dripped into a glass vial for further analysis. Saliva specimens were collected at the same times by directly expectorating saliva into glass vials.
The specimens were analyzed by a quantitative GC/MS method for the detection of THC.

[1] = saliva (expectorated), read-out: THC Concentration, Saliva
[2] = tongue mucus (mucosal scrapings), mucosal scrapings from the top of the tongue, read-out: THC Concentration, Mucus

CCCCCc1cc(O)c2c(c1)OC(C)(C)[C@@H]1CCC(C)=C[C@@H]21 [THC, Tetrahydrocannabinol]
concentration at 5 min [1]: 115 ng/mL | concentration at 2 h [1]: 16 ng/mL | concentration at 6 h [1]: 11 ng/mL | concentration at 24 h [1]: 2.1 ng/mL | concentration at 5 min [2]: 587 ng/mL | concentration at 2 h [2]: 412 ng/mL | concentration at 6 h [2]: 123 ng/mL | concentration at 24 h [2]: 44 ng/mL | Retention of THC in mucus specimen compared with saliva (mucus vs saliva, 5 minutes to 24 hours after smoking 0.2 g of marijuana): significantly higher concentration and for longer time than in saliva
